Assay results published in article PMC4556473 (British Journal of Pharmacology, 2015).
Blank lines part the entries; values can stand above or below the molecule they belong to.

Columns and labels:
[1] = target: T1, WT mSlo3 (KCa5.1) channels (Mus musculus, UniProt O54982); experiment: Two-electrode voltage clamp of WT mSlo3 currents in Xenopus oocytes; assay type: cell-based; settings: for inhibition of WT mSlo3 current: pulses to +100 mV
T1 construct: Full-length WT, R196Q and F304Y mSlo3 K^+ channel subunits were expressed in Xenopus oocytes; expressed in transfected cells; host or cells: Xenopus laevis oocytes injected with in vitro transcribed capped mRNA (pBF vector)
T1 sequence (O54982 1-1121): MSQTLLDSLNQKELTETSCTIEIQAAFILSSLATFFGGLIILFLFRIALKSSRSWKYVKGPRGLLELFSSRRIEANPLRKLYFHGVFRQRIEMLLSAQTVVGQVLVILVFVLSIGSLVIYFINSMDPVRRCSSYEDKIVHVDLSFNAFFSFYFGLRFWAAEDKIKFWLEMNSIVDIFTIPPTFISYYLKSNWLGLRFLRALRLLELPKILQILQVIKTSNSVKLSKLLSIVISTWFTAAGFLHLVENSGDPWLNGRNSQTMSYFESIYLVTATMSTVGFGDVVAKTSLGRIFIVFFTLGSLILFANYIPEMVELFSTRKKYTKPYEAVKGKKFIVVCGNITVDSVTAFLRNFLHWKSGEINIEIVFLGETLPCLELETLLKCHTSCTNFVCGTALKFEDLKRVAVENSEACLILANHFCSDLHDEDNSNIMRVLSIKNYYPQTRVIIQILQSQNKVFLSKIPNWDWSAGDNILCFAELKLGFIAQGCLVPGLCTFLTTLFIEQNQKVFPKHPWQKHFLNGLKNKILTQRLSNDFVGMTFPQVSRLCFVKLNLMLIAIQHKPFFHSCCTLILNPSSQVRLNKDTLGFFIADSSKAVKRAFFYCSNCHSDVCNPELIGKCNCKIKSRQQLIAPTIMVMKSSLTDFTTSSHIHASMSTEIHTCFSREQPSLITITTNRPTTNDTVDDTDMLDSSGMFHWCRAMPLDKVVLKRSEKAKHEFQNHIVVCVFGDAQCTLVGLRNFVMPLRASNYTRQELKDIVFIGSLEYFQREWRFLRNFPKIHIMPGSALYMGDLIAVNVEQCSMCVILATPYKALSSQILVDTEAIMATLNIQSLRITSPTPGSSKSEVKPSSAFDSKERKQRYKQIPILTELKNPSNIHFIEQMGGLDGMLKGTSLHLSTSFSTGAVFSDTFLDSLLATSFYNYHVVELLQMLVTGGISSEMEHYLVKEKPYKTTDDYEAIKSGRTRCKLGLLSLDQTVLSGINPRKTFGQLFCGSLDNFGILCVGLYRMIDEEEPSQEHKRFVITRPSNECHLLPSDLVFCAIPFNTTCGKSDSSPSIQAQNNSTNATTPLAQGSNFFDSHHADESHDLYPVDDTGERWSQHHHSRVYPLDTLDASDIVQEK
Description: A plasmid containing the full-length mSlo3 sequence was a gift from Dr L. Salkoff (Washington University School of Medicine) and the open-reading frame was subcloned into pBF (Baukrowitz et al., [1999]), a vector optimized for in vitro mRNA synthesis and Xenopus oocyte expression. […] The […] and […] mutations were introduced by Quikchange site-directed mutagenesis (Agilent Technologies, Stockport, UK) and confirmed by automated sequencing. In vitro transcription was carried out using the mMessage mMachine SP6 kit (Ambion, Huntingdon, UK) to produce capped mRNA. Individual oocytes were obtained from humanely killed female Xenopus laevis toads (housed either at the University of Leeds, UK or from the European Xenopus Resource Centre, University of Portsmouth, UK) and were injected with 10-50 ng RNA in a 40 nL volume. […] The volume of the bath was 0.5 mL, which was perfused at a rate of approximately 1 mL·min^-1. 100 mM K^+ solution was made by an equimolar replacement of NaCl with KCl. Data were analysed with […], OriginPro 7.5 (Originlab, Northampton, MA, USA), and GraphPad Prism 6 software (GraphPad Software, San Diego, CA, USA). […] Data are presented as the mean ± SEM of n individual oocytes and statistical significance tested using Student's t-test, ANOVA (with Bonferroni post hoc comparison of means), or by Kruskal-Wallis test (with Dunn's post hoc comparison) as indicated in the Results.

[2] = target: F304Y mSlo3 (Mus musculus, UniProt O54982, F304Y); experiment: Two-electrode voltage clamp of F304Y mSlo3 currents in Xenopus oocytes; assay type: cell-based; settings: +100 mV
Sequence of F304Y mSlo3 (O54982 whole entry F304Y): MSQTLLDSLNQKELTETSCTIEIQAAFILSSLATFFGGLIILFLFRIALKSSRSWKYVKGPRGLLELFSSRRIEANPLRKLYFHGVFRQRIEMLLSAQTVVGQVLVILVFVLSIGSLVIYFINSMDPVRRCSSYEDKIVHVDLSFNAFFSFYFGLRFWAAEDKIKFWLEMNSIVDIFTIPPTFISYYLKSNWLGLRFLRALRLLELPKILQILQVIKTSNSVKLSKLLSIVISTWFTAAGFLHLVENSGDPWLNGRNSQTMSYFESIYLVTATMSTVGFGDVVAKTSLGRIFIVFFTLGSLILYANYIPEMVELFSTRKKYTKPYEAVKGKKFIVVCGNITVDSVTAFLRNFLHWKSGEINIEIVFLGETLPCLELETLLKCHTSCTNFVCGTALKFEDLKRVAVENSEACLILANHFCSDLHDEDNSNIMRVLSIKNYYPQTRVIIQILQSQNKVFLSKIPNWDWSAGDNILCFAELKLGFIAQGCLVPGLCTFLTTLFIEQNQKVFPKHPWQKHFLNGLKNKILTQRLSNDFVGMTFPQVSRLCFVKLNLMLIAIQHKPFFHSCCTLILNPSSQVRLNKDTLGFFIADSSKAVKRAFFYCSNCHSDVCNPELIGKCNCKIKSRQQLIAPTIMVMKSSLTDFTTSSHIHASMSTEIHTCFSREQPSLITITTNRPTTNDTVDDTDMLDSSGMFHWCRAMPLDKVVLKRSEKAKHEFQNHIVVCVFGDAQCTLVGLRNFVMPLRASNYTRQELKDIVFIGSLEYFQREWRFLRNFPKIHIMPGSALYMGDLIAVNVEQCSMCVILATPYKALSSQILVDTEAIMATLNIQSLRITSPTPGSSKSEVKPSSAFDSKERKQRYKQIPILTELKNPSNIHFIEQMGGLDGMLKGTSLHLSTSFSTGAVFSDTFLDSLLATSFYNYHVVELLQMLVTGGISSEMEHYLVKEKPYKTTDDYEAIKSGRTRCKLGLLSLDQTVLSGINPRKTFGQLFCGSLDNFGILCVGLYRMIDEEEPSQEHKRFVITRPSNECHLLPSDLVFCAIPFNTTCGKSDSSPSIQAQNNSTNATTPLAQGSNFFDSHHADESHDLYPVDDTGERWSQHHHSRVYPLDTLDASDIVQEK
Description: A plasmid containing the full-length mSlo3 sequence was a gift from Dr L. Salkoff (Washington University School of Medicine) and the open-reading frame was subcloned into pBF (Baukrowitz et al., [1999]), a vector optimized for in vitro mRNA synthesis and Xenopus oocyte expression. […] The […] and […] mutations were introduced by Quikchange site-directed mutagenesis (Agilent Technologies, Stockport, UK) and confirmed by automated sequencing. In vitro transcription was carried out using the mMessage mMachine SP6 kit (Ambion, Huntingdon, UK) to produce capped mRNA. Individual oocytes were obtained from humanely killed female Xenopus laevis toads (housed either at the University of Leeds, UK or from the European Xenopus Resource Centre, University of Portsmouth, UK) and were injected with 10-50 ng RNA in a 40 nL volume. […] The volume of the bath was 0.5 mL, which was perfused at a rate of approximately 1 mL·min^-1. 100 mM K^+ solution was made by an equimolar replacement of NaCl with KCl. Data were analysed with […], OriginPro 7.5 (Originlab, Northampton, MA, USA), and GraphPad Prism 6 software (GraphPad Software, San Diego, CA, USA). […]

Structure (SMILES): [Ba+2].[Cl-].[Cl-] [Ba^2+, barium chloride]
inhibition of WT mSlo3 current ([1]; 2 mM, 2.5 mM extracellular K+): strongly inhibited
inhibition of WT mSlo3 current in high extracellular K+ ([1]; 2 mM, extracellular K+ raised to 100 mM): prevented
Hill slope of inhibition of WT mSlo3 currents ([1]; +100 mV): 0.88 ± 0.11
IC50 ([1]; currents evoked by voltage pulses to +100 mV, Xenopus oocytes, 2.5 mM K+ Ringer's pH 8, read-out: IC50 of inhibition of WT mSlo3 currents): 646 ± 100 µM
Hill slope of inhibition of F304Y mSlo3 currents [2]: 1.05 ± 0.12
IC50 ([2]; Xenopus oocytes, read-out: IC50 of inhibition of F304Y mSlo3 currents): 525 ± 97 µM

Structure (SMILES): CC[N+](CC)(CC)CC.[Cl-] [TEA^+, tetraethlyammonium chloride]
inhibition of WT mSlo3 current ([1]; 20 mM): weakly inhibited

inhibition of WT mSlo3 current ([1]; 50 μM): more strongly inhibited
Structure (SMILES): CCCCCCC[N+](CC)(CC)CCCCc1ccc(Cl)cc1 [clofilium]

inhibition of WT mSlo3 current ([1]; 5 μM): weakly inhibited
Structure (SMILES): COCC(=O)O[C@]1(CCN(C)CCCc2nc3ccccc3[nH]2)CCc2cc(F)ccc2[C@@H]1C(C)C [mibefridil, mibefradil]
